Entries after “also recorded” stand apart in the source; their conditions may differ. Where two headings read alike, the source gives them in different places.
Assays:
[1] = target: CB2 receptor (Homo sapiens, UniProt P34972); test: CB2 competitive radioligand binding assay ([3H] WIN-55,212-2); set-up: expressed in transfected cells; host or cells: CHO-K1 cells; details: for inhibition at 0.05 µM: 0.05 μM compound, 2.4 nM [3H] WIN-55,212-2, 90 min 37° C.; for Fold Selectivity (CB1/CB2): Table 2, ratio of Ki CB1/CB2
CB2 receptor, sequence (P34972 whole entry): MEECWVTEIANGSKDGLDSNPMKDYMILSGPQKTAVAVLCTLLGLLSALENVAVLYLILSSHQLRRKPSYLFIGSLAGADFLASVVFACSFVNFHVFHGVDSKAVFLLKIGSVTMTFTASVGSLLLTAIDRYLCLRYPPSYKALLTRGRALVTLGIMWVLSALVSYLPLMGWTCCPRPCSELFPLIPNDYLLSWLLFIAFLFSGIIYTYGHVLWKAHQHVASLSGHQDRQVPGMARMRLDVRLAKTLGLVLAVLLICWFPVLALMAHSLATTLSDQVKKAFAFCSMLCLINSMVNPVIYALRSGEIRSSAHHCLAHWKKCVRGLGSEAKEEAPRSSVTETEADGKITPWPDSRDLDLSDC
Procedure, shortened: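 CHO-K1 cells expressing human recombinant CB2 were incubated with compound (0.05 μM, 1% DMSO) and 2.4 nM [3H]WIN-55,212-2 in 20 mM HEPES pH 7.0, 0.5% BSA for 90 min at 37 °C. Percent inhibition of radioligand binding was reported.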

[2] = Pharmacokinetics after PO dose in mice; format: in vivo, Male C57BL/6 mice; details: 10 mg/kg PO; for AUC(0-inf) / Cmax / MRT inf / Tmax / half-life / AUC(0-t): male, C57BL/6, mouse, in vivo; for AUC(0-t): read-out: AUC0-24 hr
[3] = target: T1, CB1 receptor (Homo sapiens, UniProt P21554); test: cell-based; set-up: host or cells: PathHunter cell lines
T1 sequence (P21554 whole entry): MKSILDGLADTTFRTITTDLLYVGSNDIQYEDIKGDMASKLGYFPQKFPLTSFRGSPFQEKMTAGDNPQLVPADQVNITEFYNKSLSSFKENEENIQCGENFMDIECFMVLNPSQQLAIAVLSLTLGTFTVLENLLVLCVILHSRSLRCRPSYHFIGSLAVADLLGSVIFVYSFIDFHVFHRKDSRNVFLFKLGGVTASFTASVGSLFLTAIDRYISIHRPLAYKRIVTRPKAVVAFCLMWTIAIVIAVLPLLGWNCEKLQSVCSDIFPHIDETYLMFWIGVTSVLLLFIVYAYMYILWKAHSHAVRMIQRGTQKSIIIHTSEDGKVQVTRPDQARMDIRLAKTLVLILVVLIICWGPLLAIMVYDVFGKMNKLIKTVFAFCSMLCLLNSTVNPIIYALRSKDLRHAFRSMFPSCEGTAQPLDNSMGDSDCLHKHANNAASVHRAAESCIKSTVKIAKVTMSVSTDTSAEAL

[4] = target: T1, CB1 receptor; test: cAMP Assay #1: CB1 adenylylcyclase assay in CHO cells; format: cell-based; set-up: expressed in transfected cells; host or cells: CHO cells
Method: Compounds of the invention were assayed in an adenylylcyclase assay to determine agonist activity on the CB1 and CB2 receptors, the results of which are provided in Table 4. Exemplary methods for the adenylylcyclase assay can be found in the literature, for example, in Rhee, M-H., et al. Cannabinol Derivatives: Binding to Cannabinoid Receptors and Inhibition of Adenylylcyclase. J Med Chem. 40: 3228-3233 (1997).
CB1 Activity as determined by Adenylylcyclase Assay: CB1 receptor agonist activity was measured by measuring cAMP production. A compound of the invention was incubated with CHO cells expressing human recombinant CB1 for 20 minutes at 37° C.
Determination of EC50 values: The EC50 values (concentration producing a half-maximal response) were determined by non-linear regression analysis of the concentration-response curves generated with mean replicate values using Hill equation curve fitting: Y=D+[(A−D)/(1+(C/C50)^nH)], where Y=response, A=left asymptote of the curve, D=right asymptote of the curve, C=compound concentration, and C50=EC50, and nH=slope factor. This analysis was performed using software developed at Cerep (Hill software) and validated by comparison with data generated by the commercial software SigmaPlot® 4.0 for Windows® (© 1997 by SPSS Inc.).

[5] = Pharmacokinetics after IV dose in mice; details: in vivo, 1 mg/kg IV, male C57BL/6 mice; for AUC(0-t): male, C57BL/6, mouse, iv, 1 mg/kg; for AUC(0-inf) / C0 / MRT inf / clearance / half-life / Vd: mouse; for Vd: read-out: Vss
Method: Male C57BL/6 mice were administered an intravenous (IV) dose of 1 mg/kg of the indicated compound.

[6] = Brain concentration and brain/plasma ratio after PO dose in mice; format: in vivo; details: mouse, 10 mg/kg PO, male C57BL/6 mice; for Kp at 4 h / Kp at 10 h: brain/plasma; for concentration at 4 h / concentration at 10 h / concentration at 24 h: brain
Method: Male C57BL/6 mice were administered an oral (P0) dose of 10 mg/kg of the indicated compound. The brain/plasma ratios of the indicated compounds were determined by standard methods, the results of which are provided in Table 11.

[7] = tested on: 12 systems of human primary cells; test: BioMAP Diversity PLUS phenotypic screen; format: cell-based; details: 3.3 μM; for Anti-proliferation: cell type in which anti-proliferative effect was seen; for Immune modulation, cell surface and tissue remodeling biomarkers: changes at least 1.5-fold from vehicle control
Method: Compounds of the invention were assayed for their effects on 148 biomarkers of inflammation, immune modulation and tissue remodeling in the BioMAP® Diversity PLUS® (DiscoverX) platform designed to model aspects of human diseases in vitro (Kunkel 2004, Berg 2006, Melton 2013).
The example compounds (3.3 μM) in Table 8 induced increases or decreases in the levels of the indicated 20 biomarkers, which are at least 1.5-fold change from vehicle control and are outside the significance prediction envelop. All compounds presented in Table 8 were not cytotoxic at the concentration tested.

[8] = Table 2, read-out: CB2 Binding Ki
[9] = PathHunter agonist mode, read-out: CB1 Activity (β-Arrestin)
[10] = CHO cells, 20 min 37° C., relative to 10 nM CP 55940, read-out: CB1 Activity EC50 (cAMP)

CCCCCCC(C)(C)c1cc(O)c2c(c1)OC(C)(C)[C@@H]1CC=C(C(=O)O)C[C@@H]21 [AJA, (6aR,10aR)-1-hydroxy-6,6-dimethyl-3-(2-methyl-2-octanyl)-6a,7,10,10a-tetrahydro-6H-benzo[c]chromene-9-carboxylic acid, reference compound]
Ki [1]: 633 nM
inhibition at 0.05 µM [1]: 0%
F [2]: 70.79%
Tlag [2]: 0 h
AUC(0-inf) [2]: 17800 ng·h/mL
Cmax [2]: 3860 ng/mL
MRT inf [2]: 3.42 h
Tmax [2]: 1 h
half-life [2]: 2.19 h
AUC(0-t) [2]: 17800 ng·h/mL
EC50 [3]: 1240 nM
EC50 [4]: 4.6 nM
AUC(0-t) ([5]; read-out: AUC0-24 hr): 2770 ng·h/mL
AUC(0-t) ([5]; read-out: AUClast): 2420 ng·h/mL
AUC(0-inf) [5]: 2510 ng·h/mL
C0 [5]: 1750 ng/mL
MRT inf [5]: 1.89 h
clearance [5]: 6.67 mL/min/kg
half-life [5]: 1.41 h
Vd [5]: 0.75 L/kg

CCCCCCC(C)(C)c1cc(O)c2c(c1)OC(C)(C)[C@@H]1CC=C(C(=O)NC(C)(C)CCO)C[C@@H]21 [Compound 15, (6aR,10aR)-1-Hydroxy-N-(4-hydroxy-2-methylbutan-2-yl)-6,6-dimethyl-3-(2-methyloctan-2-yl)-6a,7,10,10a-tetrahydro-6H-benzo[c]chromene-9-carboxamide]
inhibition at 0.05 µM [1]: 54%
Fold Selectivity (CB1/CB2) [1]: 18.3
Ki [1, 8]: 36 nM
F [2]: 37.4%
Tlag [2]: 0.00 h
AUC(0-inf) [2]: 5890 ng·h/mL
Cmax [2]: 779 ng/mL
MRT inf [2]: 5.07 h
Tmax [2]: 4 h
half-life [2]: 2.65 h
AUC(0-t) [2]: 5870 ng·h/mL
EC50 [3, 9]: > 3000 nM
EC50 [4, 10]: 68 nM
AUC(0-t) ([5]; read-out: AUC0-24 hr): 1720 ng·h/mL
AUC(0-t) ([5]; read-out: AUClast): 1510 ng·h/mL
AUC(0-inf) [5]: 1570 ng·h/mL
C0 [5]: 1840 ng/mL
MRT inf [5]: 2.16 h
clearance [5]: 10.6 mL/min/kg
half-life [5]: 1.74 h
Vd [5]: 1.37 L/kg
Kp at 4 h [6]: 0.139
Kp at 10 h [6]: 0.331
concentration at 4 h [6]: 107 ng/g
concentration at 10 h [6]: 50.4 ng/g
concentration at 24 h [6]: 0 ng/g

CCCCCCC(C)(C)c1cc(O)c2c(c1)OC(C)(C)[C@@H]1CC=C(C(=O)NC(CO)CO)C[C@@H]21 [Compound 25, (6aR,10aR)-N-(1,3-Dihydroxypropan-2-yl)-1-hydroxy-6,6-dimethyl-3-(2-methyloctan-2-yl)-6a,7,10,10a-tetrahydro-6H-benzo[c]chromene-9-carboxamide]
inhibition at 0.05 µM [1]: 36%
Fold Selectivity (CB1/CB2) [1]: 4.33
Ki [1, 8]: 73 nM
EC50 [3, 9]: > 3000 nM
EC50 [4, 10]: 16 nM
Anti-proliferation [7]: Dermal fibroblasts
Immune modulation, cell surface and tissue remodeling biomarkers [7]: Reduced VCAM-1, PAI-I, IL-10, and M-CSF; increased MMP-1

CCCCCCC(C)(C)c1cc(O)c2c(c1)OC(C)(C)[C@@H]1CC=C(C(=O)OC(C)C)C[C@@H]21 [Compound 29, Isopropyl (6aR,10aR)-1-hydroxy-6,6-dimethyl-3-(2-methyloctan-2-yl)-6a,7,10,10a-tetrahydro-6H-benzo[c]chromene-9-carboxylate]
inhibition at 0.05 µM [1]: 79%
F [2]: 3.98%
Tlag [2]: 0.00 h
AUC(0-inf) [2]: 1420 ng·h/mL
Cmax [2]: 203 ng/mL
MRT inf [2]: 6.2 h
Tmax [2]: 6 h
half-life [2]: 4.21 h
AUC(0-t) [2]: 1400 ng·h/mL
EC50 [3, 9]: 47 nM
EC50 [4]: 6.8 nM
AUC(0-t) ([5]; read-out: AUC0-24 hr): 3550 ng·h/mL
AUC(0-t) ([5]; read-out: AUClast): 3550 ng·h/mL
AUC(0-inf) [5]: 3570 ng·h/mL
C0 [5]: 17500 ng/mL
MRT inf [5]: 1.53 h
clearance [5]: 4.67 mL/min/kg
half-life [5]: 4.89 h
Vd [5]: 0.43 L/kg
Kp at 4 h [6]: 0.00637
Kp at 10 h [6]: 0.106
concentration at 4 h [6]: 1.72 ng/g
concentration at 10 h [6]: 7.93 ng/g
concentration at 24 h [6]: 0 ng/g
Anti-proliferation [7]: Dermal fibroblasts
Immune modulation, cell surface and tissue remodeling biomarkers [7]: Reduced Eotaxin-3, IL-8, E-selectin, P-selectin, VCAM, EGFR,; also recorded: IL-1α, IP-10, and PAI-I

CCCCCCC(C)(C)c1cc(O)c2c(c1)OC(C)(C)[C@@H]1CC=C(C(=O)NC[C@@H](O)CO)C[C@@H]21 [Compound 55, (6aR,10aR)-N—((R)-2,3-Dihydroxypropyl)-1-hydroxy-6,6-dimethyl-3-(2-methyloctan-2-yl)-6a,7,10,10a-tetrahydro-6H-benzo[c]chromene-9-carboxamide]
Fold Selectivity (CB1/CB2) [1]: 19
Ki [1, 8]: 33 nM
F [2]: 30.33%
Tlag [2]: 0 h
AUC(0-inf) [2]: 7200 ng·h/mL
Cmax [2]: 882 ng/mL
MRT inf [2]: 6.4 h
Tmax [2]: 1 h
half-life [2]: 2.72 h
AUC(0-t) [2]: 7170 ng·h/mL
EC50 [3, 9]: > 3000 nM
EC50 [4, 10]: 45 nM
AUC(0-t) ([5]; read-out: AUC0-24 hr): 2360 ng·h/mL
AUC(0-t) ([5]; read-out: AUClast): 2360 ng·h/mL
AUC(0-inf) [5]: 2380 ng·h/mL
C0 [5]: 3060 ng/mL
MRT inf [5]: 3.38 h
clearance [5]: 7.02 mL/min/kg
half-life [5]: 3.99 h
Vd [5]: 1.42 L/kg
Anti-proliferation [7]: Dermal fibroblasts

CCCCCCC(C)(C)c1cc(O)c2c(c1)OC(C)(C)[C@@H]1CC=C(C(=O)NC[C@H](O)CO)C[C@@H]21 [Compound 56, (6aR,10aR)-N—((S)-2,3-Dihydroxypropyl)-1-hydroxy-6,6-dimethyl-3-(2-methyloctan-2-yl)-6a,7,10,10a-tetrahydro-6H-benzo[c]chromene-9-carboxamide]
Fold Selectivity (CB1/CB2) [1]: 17
Ki [1, 8]: 41 nM
F [2]: 23.11%
Tlag [2]: 0 h
AUC(0-inf) [2]: 4430 ng·h/mL
Cmax [2]: 902 ng/mL
MRT inf [2]: 4.89 h
Tmax [2]: 1 h
half-life [2]: 2.63 h
AUC(0-t) [2]: 4420 ng·h/mL
EC50 [3, 9]: > 3000 nM
EC50 [4, 10]: 3.6 nM
AUC(0-t) ([5]; read-out: AUC0-24 hr): 2080 ng·h/mL
AUC(0-t) ([5]; read-out: AUClast): 1790 ng·h/mL
AUC(0-inf) [5]: 1920 ng·h/mL
C0 [5]: 2790 ng/mL
MRT inf [5]: 2.3 h
clearance [5]: 8.7 mL/min/kg
half-life [5]: 2.39 h
Vd [5]: 1.2 L/kg

— patent US20210284621A1 (priority 2018, published 2021)
